# Laboratory results taken from patent publication US7635675B2, “Micro-particle fatty acid salt solid dosage formulations for therapeutic agents” (Biocon Limited, priority 2003, dated 2009).
# Assay: USP dissolution test of fatty acid salts released from tablets and capsules
# Format: physicochemical
# Conditions: tablet formulations where the fatty acids have been milled to optimum particle size (FIGS. 3-8); USP apparatus 2, 50 rpm, 500 mL pH 7.4 phosphate buffer
# Method: The formulations of the invention preferably have a high dissolution rate. The dissolution rate can be determined as follows: Use USP dissolution apparatus 2 (paddles) at 50 rpm with 500 mL of pH 7.4 phosphate buffer.
# USP 26, <711> DISSOLUTION Test Description:
# This test is provided to determine compliance with the dissolution requirements where stated in the individual monograph for a tablet or capsule dosage form. Of the types of apparatus described therein, use apparatus 2. […] Where water or a medium with a pH of less than 6.8 is specified as the Medium in the individual monograph, the same Medium specified may be used with the addition of purified pepsin that results in an activity of 750,000 Units or less per 1000 mL. For media with a pH of 6.8 or greater, pancreatin can be added to produce not more than 1750 USP Units of protease activity per 1000 mL. USP Reference Standards <11> (Dissolution Calibrator, Disintegrating). (Dissolution Calibrator, nondisintegrating) are used to calibrate the equipment.
# Apparatus 2: The assembly consists of the following: a covered vessel made of glass or other inert, transparent material; a motor; a metallic drive shaft; and a stirring element. The vessel is partially immersed in a suitable water bath of any convenient size or placed in a heating jacket. […]
row,Structure (SMILES),dissolution (release) of fatty acid salt from tablet formulations
1,CCCCCCCCCC(=O)[O-].[Na+] [capric acid sodium salt],readily released
2,CCCCCCCCCCCC(=O)[O-].[Na+] [lauric acid sodium salt],readily released
